In patent EP0326134A1, “4-Amino-2,3-disubstituted-6,7-dihydro-5H-1-pyridine derivatives, process for their preparation and medicaments containing them” (NAUCHNO-ISSLEDOVATELSKY INSTITUT TEKHNOLOGII I BEZOPASNOSTI …, priority 1988, dated 1989):
Counter-ions that a name gives are not always drawn. Like-named read-outs stand apart in the source and are kept apart here.

Experiments:
Samenleiter der Ratte = experiment: Contractile activity of smooth muscle: rat vas deferens; details: n = 9; for Adrenalin 1.10^-6: Dauer, Min.: Samenleiter der Ratte
Summary of the method: (§1)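 Isolated rat uterus and vas deferens; effects of compounds on smooth-muscle contractile activity and on responses to acetylcholine, serotonin, adrenaline and KCl as agonists. Contraction amplitude and duration recorded mechanically.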

M-cholinrezeptoren = experiment: Radioligand displacement of 3H-Propyl-2-aminobenzylat in brain; format: binding, Kaninchens
Excerpt: (§2) Dies beweisen spezielle Radioligandenuntersuchungen an einzelnen erfindungsgemäßen Verbindungen (s. Tabelle 6).

[1] = Side effects and CNS/behaviour: tremor (TD50), sedative and m-cholinomimetic effects; format: in vivo; details: in vivo, toxic dose causing tremor in 50 % of the animals
Excerpt: Von Interesse ist der Einfluß der erfindungsgemäßen Verbindungen auf das ZNS und das Verhalten der Tiere.

Uterus der Ratte = experiment: Contractile activity of smooth muscle: rat uterus; details: n = 9; for Acetylcholin 1.10^-6 (Mol): Dauer, Min.: Uterus der Ratte (as head prints); for Serotonin 1.10^-6 (Mol): Dauer, Min.: Uterus der Ratte; for activity at 100 µM / activity at 10 µM: Rattus norvegicus
Summary of the method: as §1

[2] = test system: durch Skopolamin hervorgerufene Amnesie; experiment: Dark avoidance assay (passive avoidance), scopolamine-induced amnesia; format: in vivo, Mäusen; details: mice, compound s.c. 5 min before learning, Skopolamin i.p. 30 min before
α2-Adrenorezeptoren = experiment: Radioligand displacement of 3H-clonidine in cerebral cortex; format: binding, Kaninchens; details: for α2-adrenoblockierende Wirkung: in words, from radioligand studies
Excerpt: as §2

[3] = test system: Na -Durchlässigkeit der Membrane des Ranvier-Schnürringes; experiment: Na+ permeability of the node of Ranvier membrane, voltage clamp; design: species or system Frosches; details: concentration giving 50 % block of ion permeability
Excerpt: (§3) Untersucht wurden die Wirkmechanismen der erfindungsgemäßen Verbindungen: • 1. Die Wirkung auf Acetylcholinesterase menschlicher Erythrozyten auf spektrofotometrischem Wege. • 2. Die Wirkung auf die K - und Na -Durchlässigkeit der Membrane des Ranvier-Schnürringes (s. Fox T.M. et al. "Modification of ionic membrane currrents of Ranvier nodes by UV-radiation under voltage clamp conditions", Experientia, 27, 1289-1290 /1971/ und Arhom P. et al. "Local anesthetics: effects on permeability properties of nodal membrane in myelynated nerve fibres from xenopus". Acta physiol. Scand. 91, 11-21 /1974/) der Nervenfasern des Hüftnervs des Frosches unter Anwendung der Methode der Messung der Membranspannung (Voltage-clampmethode) (s. Derksen H.E. "Axon membrane voltage fluctuations", Acta Physiol., Pharmacol Neer, 13, 373-466 /1965/).
(§4) Alle erfindungsgemäßen Verbindungen sind Blocker für die K^+-Durchlässigkeit der Membrane analog dem Amyridin. Die Salze der bicyclischen Basen blockieren jedoch stärker die Na -Durchlässigkeit der Membrane, was sich mit ihren sedativen und analgetischen Eigenschaften in Verbindung bringen läßt.

M2-Cholinrezeptoren = target: T1, M2-Cholinrezeptoren (Oryctolagus cuniculus, UniProt G1TBX1); experiment: Radioligand displacement of 3H-Chinuklidin in heart; format: binding, Kaninchen
T1 construct: im Kaninchen-herzen (M2-Cholinre-zeptoren); from tissue; host or cells: rabbit heart
T1 sequence (G1TBX1 1-520): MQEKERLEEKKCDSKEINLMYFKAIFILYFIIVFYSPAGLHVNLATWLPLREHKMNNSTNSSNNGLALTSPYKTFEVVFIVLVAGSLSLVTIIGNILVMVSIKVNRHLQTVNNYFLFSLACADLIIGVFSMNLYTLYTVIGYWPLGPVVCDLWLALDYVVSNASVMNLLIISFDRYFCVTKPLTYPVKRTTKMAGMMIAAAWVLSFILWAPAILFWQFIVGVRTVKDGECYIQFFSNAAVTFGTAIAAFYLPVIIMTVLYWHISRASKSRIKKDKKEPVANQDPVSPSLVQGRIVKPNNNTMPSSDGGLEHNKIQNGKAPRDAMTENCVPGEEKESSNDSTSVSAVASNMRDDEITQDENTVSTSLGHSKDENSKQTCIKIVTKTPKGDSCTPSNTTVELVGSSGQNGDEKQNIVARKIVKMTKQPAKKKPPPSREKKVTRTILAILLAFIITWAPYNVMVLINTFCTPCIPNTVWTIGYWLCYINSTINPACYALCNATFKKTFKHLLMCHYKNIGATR
Excerpt: as §2

[4] = test system: K -Durchlässigkeit der Membrane des Ranvier-Schnürringes; experiment: K+ permeability of the node of Ranvier membrane, voltage clamp; design: species or system Frosches; details: concentration giving 50 % block of ion permeability
Excerpt: as §3, §4

[5] = test system: Nerven-Muskel-Präparat von Mäusen (n.peroneus-m.extensor digitorum longus); experiment: Neuromuscular transmission in isolated nerve-muscle preparation (EPP, minEPP); details: for Stimulierung der Nerven-Muskelübertragung, in % der Amplitude: EPP: EPP = Endplattenpotential
Summary of the method: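 Mouse peroneal nerve–extensor digitorum longus preparation, isolated and perfused with O2/CO2-gassed Lilly solution. EPPs and spontaneous minEPPs were recorded by magnetograph, then analysed by computer for frequency, amplitude and duration.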

[6] = Acute toxicity, single intraperitoneal injection, probit analysis (LD50); format: in vivo, Mäusen; details: mouse, in vivo, ip, mice, i.p., read-out: LD50
Excerpt: Ihre akute Toxizität wurde an Mäusen (einmalige intraperitoneale Injektion) nach der Methode der Probit-Analyse nach Zichtfield, Wilcoxon, t949 untersucht. In Tabelle 2 sind die Parameter der akuten Toxizität (LDso) angegeben, die eine mäßige Toxizität der erfindungsgemäßen Verbindungen belegen.

[7] = Konzentration 1.10^-5 Mol, 10 µM
[8] = Konzentration 1.10^-6 Mol, 1 µM

| SMILES | Adrenalin 1.10^-6: Dauer, Min. (Samenleiter der Ratte; Konzentration 1.10^-4 Mol) [Min.] | Adrenalin 1.10^-6: Dauer, Min. (Samenleiter der Ratte; Konzentration 1.10^-5 Mol) [Min.] | Verdrängung des 3H-Propyl-2-aminobenzylats im Gehirn des Kaninchens (M-cholinrezeptoren) (M-cholinrezeptoren; [7]) | Verdrängung des 3H-Propyl-2-aminobenzylats im Gehirn des Kaninchens (M-cholinrezeptoren) (M-cholinrezeptoren; [8]) | TD50 [1] [mg/kg] | Serotonin 1.10^-6 (Mol): Dauer, Min. (Uterus der Ratte; Konzentration 1.10^-5 Mol) [Min.] | Verdrängung des 3H-Clonidins in der Hirnrinde des Kaninchens (α2-Adrenorezeptoren) (α2-Adrenorezeptoren; [7]) | Verdrängung des 3H-Clonidins in der Hirnrinde des Kaninchens (α2-Adrenorezeptoren) (α2-Adrenorezeptoren; [8]) | α2-adrenoblockierende Wirkung (α2-Adrenorezeptoren) | Stimulierung der Nerven-Muskelübertragung, in % der Amplitude: EPP [5] [%] | Stimulierung der Nerven-Muskelübertragung, in % der Amplitude: minEPP [5] [%] | LD50 [6] [mg/kg] | also measured |
| --- | --- | --- | --- | --- | --- | --- | --- | --- | --- | --- | --- | --- | --- |
| Nc1c2c(nc3c1CCC3)CCCC2 [Verbindung 40, 9-Amino-2,3,5,6,7,8-hexahydro-1 H-cyclopenta(b)chinolinhydrochloridhydrat, reference compound] | 28±0.8 | 25±0.6 | 10 | 0 | 23.2 | 25±0.4 | 10 | 0 | fehlt jedoch praktisch | 55 | 100 | 44 | Acetylcholin 1.10^-6 (Mol): Dauer, Min. (Uterus der Ratte; Konzentration 1.10^-4 Mol): 30±0.9 Min.; Acetylcholin 1.10^-6 (Mol): Dauer, Min. (Uterus der Ratte; Konzentration 1.10^-5 Mol): 30±0.5 Min.; Serotonin 1.10^-6 (Mol): Dauer, Min. (Uterus der Ratte; Konzentration 1.10^-4 Mol): 30±0.5 Min.; Einfluß auf das Gedächtnis: Zahl der Tiere in %, bei denen die Skopolaminwirkung aufgehoben wurde [2]: 60%; IC50 ([3]; node of Ranvier, frog sciatic nerve fibres, voltage clamp, read-out: Blockierung der Na^+-Durchlässigkeit der Membrane Ic50 (Mol)): 200 µM; Verdrängung des 3H-Chinuklidins im Kaninchenherzen (M2-Cholinrezeptoren) (M2-Cholinrezeptoren; [7]): 0; Verdrängung des 3H-Chinuklidins im Kaninchenherzen (M2-Cholinrezeptoren) (M2-Cholinrezeptoren; [8]): 0; IC50 ([4]; node of Ranvier, frog sciatic nerve fibres, voltage clamp, read-out: Blockierung der K^+-Durchlässigkeit der Membrane Ic50 (Mol)): 450 µM |
| Nc1c2c(nc3ccccc13)CCCC2 [Verbindung 41, 2,3,4,5-Tetrahydro-9-amino-acridin, reference compound] | 2±0.2 | 2±0.06 | 0 | 0 | 10 | 5±0.5 | 27 | 0 | in demselben Maße | 22 | 40 | 30 | activity at 100 µM (Samenleiter der Ratte; Rattus norvegicus, read-out: Adrenalin 1.10^-6: Amplitude, % bezogen auf d.Kontrolle, Samenleiter der Ratte, Konzentration 1.10^-4 Mol): 35%; activity at 10 µM (Samenleiter der Ratte; Rattus norvegicus, read-out: Adrenalin 1.10^-6: Amplitude, % bezogen auf d.Kontrolle, Samenleiter der Ratte, Konzentration 1.10^-5 Mol): 120%; activity at 100 µM (Uterus der Ratte; read-out: Acetylcholin 1.10^-6 (Mol): Amplidude, % bezogen auf d. Kontrolle, Uterus der Ratte (as head prints), Konzentration 1.10^-4 Mol, ditto mark -"- repeats unverändert): 26%; activity at 10 µM (Uterus der Ratte; read-out: Acetylcholin 1.10^-6 (Mol): Amplidude, % bezogen auf d. Kontrolle, Uterus der Ratte (as head prints), Konzentration 1.10^-5 Mol, ditto mark -"- repeats unverändert): 100%; activity at 100 µM (Uterus der Ratte; read-out: Serotonin 1.10^-6 (Mol): Amplitude, % bezogen auf die Kontrolle, Uterus der Ratte, Konzentration 1.10^-4 Mol): 0%; activity at 10 µM (Uterus der Ratte; read-out: Serotonin 1.10^-6 (Mol): Amplitude, % bezogen auf die Kontrolle, Uterus der Ratte, Konzentration 1.10^-5 Mol): 164%; IC50 ([3]; read-out: Blockierung der Na^+-Durchlässigkeit der Membrane Ic50 (Mol), node of Ranvier, frog sciatic nerve fibres, voltage clamp): 15 µM; inhibition at 10 µM (M2-Cholinrezeptoren; Konzentration 1.10^-5 Mol, read-out: Verdrängung des 3H-Chinuklidins im Kaninchenherzen (M2-Cholinrezeptoren)): 50%; inhibition at 1 µM (M2-Cholinrezeptoren; Konzentration 1.10^-6 Mol, read-out: Verdrängung des 3H-Chinuklidins im Kaninchenherzen (M2-Cholinrezeptoren)): 10%; IC50 ([4]; read-out: Blockierung der K^+-Durchlässigkeit der Membrane Ic50 (Mol), node of Ranvier, frog sciatic nerve fibres, voltage clamp): 800 µM |
